Data: article PMC7084495, “Discovery of 1-Pyrimidinyl-2-Aryl-4,6-Dihydropyrrolo [3,4-d]Imidazole-5(1H)-Carboxamide as a Novel JNK Inhibitor” (International Journal of Molecular Sciences, 2020)

What follows are compounds tested against T1, JNK3 (h) (Homo sapiens, UniProt P53779) (assay: JNK3 kinase inhibition, Reaction Biology Kinase HotSpot radiometric assay). Conditions: enzymatic activity; ATP 10 μM.
T1 construct: purchased Reaction Biology Corp. (Kinase HotSpot service)
Assay type: biochemical
Text: (specific activity approx. 500 cpm/pmol, concentration as required).

T1 sequence (P53779 whole entry): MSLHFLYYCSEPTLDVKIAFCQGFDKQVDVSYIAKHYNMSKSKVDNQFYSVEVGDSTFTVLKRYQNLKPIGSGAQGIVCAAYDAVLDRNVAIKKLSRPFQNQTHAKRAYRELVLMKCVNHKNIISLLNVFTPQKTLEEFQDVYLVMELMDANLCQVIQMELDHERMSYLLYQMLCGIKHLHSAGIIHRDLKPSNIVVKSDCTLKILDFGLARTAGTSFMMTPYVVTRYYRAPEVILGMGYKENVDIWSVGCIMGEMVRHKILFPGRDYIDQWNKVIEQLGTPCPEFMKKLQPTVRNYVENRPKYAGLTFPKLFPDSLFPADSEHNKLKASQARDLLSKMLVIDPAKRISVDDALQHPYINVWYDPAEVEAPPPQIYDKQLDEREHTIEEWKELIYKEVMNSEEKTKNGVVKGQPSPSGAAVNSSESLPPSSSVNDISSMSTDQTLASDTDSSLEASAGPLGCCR

| IC50 | Structure (SMILES) |
| --- | --- |
| 0.0104 µM | NC(=O)N1Cc2nc(-c3ccc(Cl)c(Cl)c3)n(-c3ccnc(N[C@H]4CCCN(C(=O)C5CC5)C4)n3)c2C1 [Compound 17a, (S)-1-(2-((1-(Cyclopropanecarbonyl)Piperidin-3-yl)Amino)Pyrimidin-4-yl)-2-(3,4-Dichlorophenyl)-4,6-Dihydropyrrolo[3,4-d]Imidazole-5(1H)-Carboxamide] |
| 0.225 µM | NC(=O)N1Cc2nc(-c3ccc4c(c3)OCO4)n(-c3ccnc(N[C@H]4CCCN(C(=O)C5CCC5)C4)n3)c2C1 [Compound 20c, (S)-2-(Benzo[d][1,3]Dioxol-5-yl)-1-(2-((1-(Cyclobutanecarbonyl)Piperidin-3-yl)Amino)Pyrimidin-4-yl)-4,6-Dihydropyrrolo[3,4-d]Imidazole-5(1H)-Carboxamide] |
| 0.0186 µM | O=C(C1CC1)N1CCC[C@H](Nc2nccc(-n3c(-c4ccc(Cl)c(Cl)c4)nc4c3CN(C(=O)N3CCC(O)CC3)C4)n2)C1 [Compound 22a, (S)-(1-(2-((1-(Cyclopropanecarbonyl)piperidin-3-yl)amino)pyrimidin-4-yl)-2-(3,4-dichlorophenyl)-4,6-dihydropyrrolo[3,4-d]Imidazol-5(1H)-yl)(4-hydroxypiperidin-1-yl)methanone] |
